Molecular target: T1, NIT1 (NITRILASE1) (Arabidopsis thaliana, UniProt P32961)
T1 construct: recombinant, 6xHis-tagged, expressed in Escherichia coli, (NH4)2SO4 precipitation, Ni-NTA and PD-10 purified; tag cleavage not mentioned
T1 sequence (P32961 2-346): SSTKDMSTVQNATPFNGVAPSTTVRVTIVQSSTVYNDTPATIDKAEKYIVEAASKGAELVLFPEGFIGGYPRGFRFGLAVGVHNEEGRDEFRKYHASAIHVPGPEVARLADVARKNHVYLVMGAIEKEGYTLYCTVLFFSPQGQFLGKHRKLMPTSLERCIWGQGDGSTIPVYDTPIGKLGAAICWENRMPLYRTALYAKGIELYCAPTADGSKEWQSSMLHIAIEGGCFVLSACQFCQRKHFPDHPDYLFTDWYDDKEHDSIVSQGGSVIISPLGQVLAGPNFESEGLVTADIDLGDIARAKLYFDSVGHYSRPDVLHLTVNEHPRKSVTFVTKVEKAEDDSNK
Experiment: Berthelot colorimetric ammonia assay; IC50 by linear-regression interpolation
Format: biochemical

IC50: ~20.7 µM
SMILES: CC(Nc1cccc2ccccc12)C(=O)NN=Cc1c(O)ccc2ccccc12 (stereo not shown) [D, N'‐[(2‐hydroxy‐1‐naphthyl)methylene]‐2‐(1‐naphthylamino)propanohydrazide]
